pIC50: −log10 of the molar value. Where “and” joins values, the source holds several entries; their conditions need not be identical. Equal values may be shown once. Read-outs that look alike come from different tables or passages of the source.
Columns and labels:
wild-type tobacco plants = test: spray test, herbicidal damage scoring; format: in vivo; details: Table 4.1, 7 days after treatment, 100=complete death, 0=no damage, one value per plant/event
Description: (§1) Once rooted, plantlets are transferred from agar and potted into 50% peat, 50% John Innes Soil No. 3 or, for example, MetroMix® 380 soil (Sun Gro Horticulture, Bellevue, WA) with slow-release fertilizer in 3 inch round or 4 inch square pots and left regularly watered to establish for 8-12d in the glass house. Glass house conditions are about 24-27° C. day; 18-21° C. night and approximately a 14h (or longer in UK summer) photoperiod.
(§2) About 20-30 TO events are produced for a number of HPPD variant genes.
(§3) Tables 4.1-4.9 show the herbicidal damage scoring on transgenic tobacco plants 7 days after treatment. A score of 100=complete death and 0=no damage observed.

[1] = test system: transgenic tobacco plants expressing mutant HPPD SEQ ID NO: 122; test: spray test, herbicidal damage scoring; format: in vivo; details: 7 days after treatment, 100=complete death, 0=no damage, one value per event
Description: DNA sequences that encode these polypeptides (optimized for tobacco or, optionally, codon optimized according to a target crop such as soybean) were prepared synthetically. Each sequence was designed to include a 5′ fusion with TMV omega 5′ leader sequence such that they are flanked at the 5′ end with XhoI and at the 3′ end with KpnI to facilitate direct cloning into a suitable binary vector for Agrobacterium-based plant transformation.
For example, a master plate of Agrobacterium tumefaciens containing the HPPD expressing the binary vector is used to inoculate 10 ml LB (L broth) containing 100 mg/l Rifampicin plus 50 mg/l Kanamycin using a single bacterial colony. This is incubated overnight at 28° C. shaking at 200 rpm. This entire overnight culture is used to inoculate a 50 ml volume of LB containing the same antibiotics. Again this is cultured overnight at 28° C. shaking at 200 rpm. The Agrobacterium cells are pelleted by centrifuging at 3000 rpm for 15 minutes and then resuspended in MS (Murashige and Skoog) medium containing 30 g/l sucrose, pH 5.9 to an OD […]=0.6. This suspension is dispensed in 25 ml aliquots into petri dishes.
as §1, §2
Single copy events amongst the Ti plant lines are identified by their 3:1 segregation ratio (with respect to kanamycin and/or herbicide) and by quantitative RT-PCR. Seed from the thus selected Ti tobacco (var. Samsun) lines are sown in 3 inch diameter pots containing 50% peat and 50% John Innes Soil No. 3. […] HPPD expression levels were monitored by Western analysis.
as §3

[2] = molecular target: HPPD variant AVESA V349 (SEQ ID NO: 47) (Avena sativa, UniProt A0ACD5V6K6, A327R/I340E/L359M/P271N/S304T/V218I); test: biochemical; format: biochemical
HPPD variant AVESA V349 (SEQ ID NO: 47) (Avena sativa, UniProt A0ACD5V6K6, A327R/I340E/L359M/P271N/S304T/V218I), sequence (A0ACD5V6K6 entry or part of it V218I/P271N/S304T/A327R/I340E/L359M): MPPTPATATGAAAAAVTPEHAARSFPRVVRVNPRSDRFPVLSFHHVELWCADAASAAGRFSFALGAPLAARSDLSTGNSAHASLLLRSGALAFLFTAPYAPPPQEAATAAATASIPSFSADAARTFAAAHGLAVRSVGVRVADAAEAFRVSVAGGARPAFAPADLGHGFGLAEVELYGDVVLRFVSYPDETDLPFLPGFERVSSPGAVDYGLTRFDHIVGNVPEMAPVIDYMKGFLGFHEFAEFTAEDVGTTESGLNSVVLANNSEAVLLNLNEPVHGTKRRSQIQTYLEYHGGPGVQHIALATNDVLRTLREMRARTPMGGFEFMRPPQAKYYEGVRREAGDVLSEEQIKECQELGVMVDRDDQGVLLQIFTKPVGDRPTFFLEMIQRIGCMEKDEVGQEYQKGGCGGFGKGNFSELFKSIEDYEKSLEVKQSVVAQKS
Description: (§4) 25 ul of the overnight cultures were inoculated into fresh 96-deepwell block containing 1 ml Formedium Autoinduction Media (AIM). The AIM cultures were grown for 3h at 37° C. (900rpm) and then transferred to 20° C. overnight (900rpm) to allow protein expression. The overnight cultures were centrifuged and 500 ul of Cellytic B (Sigma Aldrich) was added to resuspend the cell pellets. The coupled HGO assay (Siehl et al, 2014) is used to generate IC50 values for the HPPD variants of interest.
(§5) E. coli BL21 (DE3) cells were transformed with a pET24a vector containing a C-terminally his-tagged Arabidopsis HGO gene, grown and induced overnight as described for the HPPD variants above. The cell pellet was resuspended in phosphate buffered saline at pH 7.4 containing 10% Glycerol, 1mm Tris[2-carboxyethyl] phosphine-HCl (TCEP) plus 30 mM Imidazole and lysed using lysozyme/benzonase. The extract was clarified by low speed centrifugation and purified in the same buffer down a 1 ml His Gravitrap column. The bound HGO was eluted in 0.25M imidazole and the fractions pooled and beaded into liquid nitrogen. All procedures apart from the centrifugation and beading steps were carried out under a nitrogen atmosphere.
(§6) The coupled HGO assay is carried out by adding 10 ul of HPPD extract to a 96-well plate and then adding 40 ul of reaction buffer (50 mM Bis Tris Propane, pH7.0, 25 mM sodium-L-ascorbate, 400μM mercaptoethanol, 50 μM Fe(II)SO4). The plates are left to incubate for 5 minutes on ice. […] 200 ul of HPP/HGO (197 μM hydroxyphenylpyruvic acid, 16 μl/ml Homogentisic Acid Oxidase in reaction buffer as described above) buffer is then added to the well and the reaction is regularly monitored (e.g. every 30 seconds-5 minutes) for absorbance at 330 nm for a given time period (e.g., for between 15-60 minutes). The data can then be used to calculate the IC50 value for each HPPD variant of interest.

[3] = molecular target: HPPD variant AVESA V208 (SEQ ID NO: 14) (Avena sativa, UniProt A0ACD5V6K6, A327R/I340E/L359M/P271N/V218I); test: biochemical; format: biochemical
HPPD variant AVESA V208 (SEQ ID NO: 14), sequence (A0ACD5V6K6 entry or part of it V218I/P271N/A327R/I340E/L359M): as the sequence (A0ACD5V6K6 entry or part of it V218I/P271N/S304T/A327R/I340E/L359M) above, with T304S counted along it
Description: as §4, §5, §6

[4] = test system: HPPD variant AVESA V349 (SEQ ID NO: 47); test: biochemical; format: biochemical, Avena sativa
Description: as §4, §5, §6

[5] = test system: HPPD variant AVESA V357 (SEQ ID NO: 53); test: biochemical; format: biochemical, Avena sativa
Description: as §4, §5, §6

[6] = molecular target: HPPD variant AVESA V357 (SEQ ID NO: 53) (Avena sativa, UniProt A0ACD5V6K6, A327R/I340E/L359M/P271N/R214G/S304T/V218I); test: biochemical; format: biochemical
HPPD variant AVESA V357 (SEQ ID NO: 53) (Avena sativa, UniProt A0ACD5V6K6, A327R/I340E/L359M/P271N/R214G/S304T/V218I), sequence (A0ACD5V6K6 entry or part of it R214G/V218I/P271N/S304T/A327R/I340E/L359M): as the sequence (A0ACD5V6K6 entry or part of it V218I/P271N/S304T/A327R/I340E/L359M) above, with R214G counted along it
Description: as §4, §5, §6

[7] = molecular target: HPPD variant AVESA V296 (SEQ ID NO: 20) (Avena sativa, UniProt A0ACD5V6K6, A327R/G411A/I340E/L359Y/R214G/V218I); test: biochemical; format: biochemical
HPPD variant AVESA V296 (SEQ ID NO: 20), sequence (A0ACD5V6K6 entry or part of it R214G/V218I/A327R/I340E/L359Y/G411A): as the sequence (A0ACD5V6K6 entry or part of it V218I/P271N/S304T/A327R/I340E/L359M) above, with R214G, N271P, T304S, M359Y, G411A counted along it
Description: as §4, §5, §6

[8] = molecular target: HPPD variant AVESA V180 (SEQ ID NO: 124) (Avena sativa, UniProt A0ACD5V6K6, A327R/G411A/I340E/L359M/V218I); test: biochemical; format: biochemical
HPPD variant AVESA V180 (SEQ ID NO: 124), sequence (A0ACD5V6K6 entry or part of it V218I/A327R/I340E/L359M/G411A): as the sequence (A0ACD5V6K6 entry or part of it V218I/P271N/S304T/A327R/I340E/L359M) above, with N271P, T304S, G411A counted along it
Description: as §4, §5, §6

[9] = molecular target: HPPD variant AVESA V332 (SEQ ID NO: 44) (Avena sativa, UniProt A0ACD5V6K6, A327R/I340E/K404N/L359M/P271N/R214G/V218I/V260A); test: biochemical; format: biochemical
HPPD variant AVESA V332 (SEQ ID NO: 44), sequence (A0ACD5V6K6 entry or part of it R214G/V218I/V260A/P271N/A327R/I340E/L359M/K404N): as the sequence (A0ACD5V6K6 entry or part of it V218I/P271N/S304T/A327R/I340E/L359M) above, with R214G, V260A, T304S, K404N counted along it
Description: as §4, §5, §6

[10] = molecular target: HPPD variant AVESA V351 (SEQ ID NO: 50) (Avena sativa, UniProt A0ACD5V6K6, A327R/G411A/I340E/L359Y/R214G/S304T/V218I); test: biochemical; format: biochemical
HPPD variant AVESA V351 (SEQ ID NO: 50), sequence (A0ACD5V6K6 entry or part of it R214G/V218I/S304T/A327R/I340E/L359Y/G411A): as the sequence (A0ACD5V6K6 entry or part of it V218I/P271N/S304T/A327R/I340E/L359M) above, with R214G, N271P, M359Y, G411A counted along it
Description: as §4, §5, §6

[11] = AVESA V349, SEQ ID NO: 47, read-out: IC50
[12] = AVESA V208, SEQ ID NO: 14, read-out: IC50
[13] = AVESA V357, SEQ ID NO: 53, read-out: IC50
[14] = AVESA V296, SEQ ID NO: 20, read-out: IC50
[15] = AVESA V180, SEQ ID NO: 124, read-out: IC50
[16] = AVESA V332, SEQ ID NO: 44, read-out: IC50
[17] = AVESA V351, SEQ ID NO: 50, read-out: IC50

Molecule	pIC50 [2, 11]	pIC50 [3, 12]	IC50 fold improvement compared to SEQ ID NO: 122 [4] [×]	IC50 fold improvement over SEQ ID NO: 122 [5]	pIC50 [6, 13]	pIC50 [7, 14]	pIC50 [8, 15]	pIC50 [9, 16]	pIC50 [10, 17]	also measured
COc1ccc(-n2nc(C)cc(C(=O)C3C(=O)CCCC3=O)c2=O)cc1OC [Herbicide C, dioxopyritrione]	< 4.30	< 4.30	> 200	no improvement	6.55	5.89	6.21	< 4.30	4.84	herbicidal damage scoring, Herbicide C 100 g/ha (wild-type tobacco plants): 95 and 99 and 96; herbicidal damage scoring, Herbicide C (200 g/ha) (wild-type tobacco plants): 95 and 97 and 98 and 96; herbicidal damage scoring, Herbicide C 100 g/ha ([1]; Table 3.1, plants expressing SEQ ID 122): 90 and 70 and 95 and 96; herbicidal damage scoring, Herbicide C (200 g/ha) ([1]; Table 4.4, SEQ ID NO: 122): 99 and 95 and 97 and 98
Cn1nnnc1NC(=O)c1ccc(C(F)(F)F)nc1-n1cncn1 [Herbicide D, N-(1-methyltetrazol-5-yl)-2-(1,2,4-triazol-1-yl)-6-(trifluoromethyl)pyridine-3-carboxamide]	–	–	29	36 ×	–	–	–	–	–	herbicidal damage scoring, Herbicide D (2000 g/ha) (wild-type tobacco plants): 99 and 96 and 97 and 95; herbicidal damage scoring, Herbicide D (2000 g/ha) ([1]; Table 4.4, SEQ ID NO: 122): 80 and 70 and 65 and 75 and 85 and 60; pIC50 [2]: 3.71; pIC50 [3]: 3.74; pIC50 [6]: 3.61; pIC50 [7]: < 3.30; pIC50 [8]: < 3.30; pIC50 [9]: 3.87; pIC50 [10]: < 3.30
bicyclopyrone	4.99	4.41	27	110 ×	4.38	< 3.30	4.25	3.99	< 3.30	herbicidal damage scoring, Bicyclopyrone (800 g/ha) (wild-type tobacco plants): 95; herbicidal damage scoring, Bicyclopyrone (800 g/ha) ([1]; Table 4.4, SEQ ID NO: 122): 60 and 50 and 55 and 65 and 35 and 70 and 40

From US20240043860A1, “NOVEL HYDROXYPHENYLPYRUVATE DIOXYGENASE POLYPEPTIDES AND METHODS OF USE THEREOF” (Syngenta Crop Protection AG, priority 2020, published 2024)
